From ChEMBL document CHEMBL5465560, “Selectivity Literature for EUbOPEN Chemogenomic Library” (2024)

Assays:
[1] = test system: Epidermal growth factor receptor (Homo sapiens), P00533 [G719C]; assay: (§1) Selectivity interaction (KinomeScan (DiscoverX)) EUB0000229b EGFR; conditions: at 1 µM
[2] = test system: Epidermal growth factor receptor (Homo sapiens), P00533 [UNDEFINED MUTATION]; assay: as §1; conditions: at 1 µM
[3] = test system: Epidermal growth factor receptor (Homo sapiens), P00533 [L858R]; assay: as §1; conditions: at 1 µM
[4] = test system: Epidermal growth factor receptor (Homo sapiens), P00533 [G719S]; assay: as §1; conditions: at 1 µM
[5] = target: Epidermal growth factor receptor (Homo sapiens, UniProt P00533); assay: as §1; conditions: at 10 µM
[6] = test system: Epidermal growth factor receptor (Homo sapiens), P00533 [T790M]; assay: as §1; conditions: at 1 µM
[7] = test system: Epidermal growth factor receptor (Homo sapiens), P00533 [L861Q]; assay: as §1; conditions: at 1 µM
[8] = test system: Epidermal growth factor receptor (Homo sapiens), P00533 [L858R,T790M]; assay: as §1; conditions: at 1 µM
[9] = target: Wee1-like protein kinase 2 (Homo sapiens) (UniProt P0C1S8); assay: Selectivity interaction (KinomeScan (DiscoverX)) EUB0000229b WEE2; conditions: at 10 µM
[10] = target: Ribosomal protein S6 kinase beta-1 (Homo sapiens, UniProt P23443); assay: Selectivity interaction (KinomeScan (DiscoverX)) EUB0000595a RPS6KB1; conditions: at 10 µM
Aurora kinase B = Aurora kinase B (Homo sapiens, UniProt Q96GD4); assay: Selectivity interaction (KinomeScan (DiscoverX)) EUB0001079a AURKB; conditions: at 1 µM
[11] = target: Dual specificity mitogen-activated protein kinase kinase 2 (Homo sapiens) (UniProt P36507); assay: Selectivity interaction (KinomeScan (DiscoverX)) EUB0001550a MAP2K2; conditions: at 1 µM
[12] = target: Serine/threonine-protein kinase Chk2 (Homo sapiens) (UniProt O96017); assay: Selectivity interaction (KinomeScan (DiscoverX)) EUB0000618a CHEK2; conditions: at 10 µM
[13] = target: Tyrosine-protein kinase Fgr (Homo sapiens) (UniProt P09769); assay: Selectivity interaction (ActivX KiNativ screen (kinase selectivity in THP-1 cell lysates)) EUB0000639a FGR; assay type: subcellular; conditions: lysate
[14] = target: Tyrosine-protein kinase CSK (Homo sapiens) (UniProt P41240); assay: Selectivity interaction (ActivX KiNativ screen (kinase selectivity in THP-1 cell lysates)) EUB0000639a CSK; assay type: subcellular; conditions: lysate, at 1 µM
[15] = target: Serine/threonine-protein kinase 10 (Homo sapiens) (UniProt O94804); assay: Selectivity interaction (ActivX KiNativ screen (kinase selectivity in THP-1 cell lysates)) EUB0000639a STK10; assay type: subcellular; conditions: lysate, at 0.04 µM
[16] = target: T1, Serine/threonine-protein kinase ULK2 (Homo sapiens) (UniProt Q8IYT8); assay: Selectivity interaction (KinomeScan (DiscoverX)) EUB0000655a ULK2; conditions: at 10 µM
T1 sequence (whole entry): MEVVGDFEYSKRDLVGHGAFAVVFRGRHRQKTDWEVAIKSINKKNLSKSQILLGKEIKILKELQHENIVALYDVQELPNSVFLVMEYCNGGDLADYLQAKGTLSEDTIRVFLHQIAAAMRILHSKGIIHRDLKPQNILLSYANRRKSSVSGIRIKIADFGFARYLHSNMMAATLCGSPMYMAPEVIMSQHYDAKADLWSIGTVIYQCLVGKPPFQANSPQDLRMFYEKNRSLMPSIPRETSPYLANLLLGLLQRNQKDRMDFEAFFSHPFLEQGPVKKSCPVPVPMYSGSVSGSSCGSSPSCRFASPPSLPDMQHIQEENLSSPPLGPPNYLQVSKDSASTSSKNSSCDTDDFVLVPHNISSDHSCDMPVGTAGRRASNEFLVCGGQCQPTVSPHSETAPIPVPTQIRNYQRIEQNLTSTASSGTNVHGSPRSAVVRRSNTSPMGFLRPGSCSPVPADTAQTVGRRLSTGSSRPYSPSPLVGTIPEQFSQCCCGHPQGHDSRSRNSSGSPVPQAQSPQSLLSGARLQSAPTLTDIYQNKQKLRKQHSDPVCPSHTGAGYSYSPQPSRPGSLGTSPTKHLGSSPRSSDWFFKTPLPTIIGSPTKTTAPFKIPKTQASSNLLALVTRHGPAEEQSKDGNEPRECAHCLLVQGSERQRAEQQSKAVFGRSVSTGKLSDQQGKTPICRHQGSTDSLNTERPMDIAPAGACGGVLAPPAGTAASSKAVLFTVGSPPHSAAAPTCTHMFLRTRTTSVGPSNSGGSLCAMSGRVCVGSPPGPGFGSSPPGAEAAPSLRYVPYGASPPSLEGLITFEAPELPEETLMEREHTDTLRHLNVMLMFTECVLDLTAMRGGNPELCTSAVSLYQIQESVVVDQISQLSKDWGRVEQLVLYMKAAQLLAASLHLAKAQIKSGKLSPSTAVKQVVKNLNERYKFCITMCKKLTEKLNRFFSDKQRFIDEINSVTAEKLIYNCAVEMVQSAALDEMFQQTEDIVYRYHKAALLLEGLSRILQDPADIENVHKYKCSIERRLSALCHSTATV

[17] = target: Homeodomain-interacting protein kinase 2 (Homo sapiens, UniProt Q9H2X6); assay: Selectivity interaction (KinomeScan (DiscoverX)) EUB0000092b HIPK2; conditions: at 10 µM
[18] = target: T2, Aurora kinase A (Homo sapiens) (UniProt O14965); assay: Selectivity interaction (KinomeScan (DiscoverX)) EUB0000092b STK6; conditions: at 10 µM
T2 sequence (whole entry): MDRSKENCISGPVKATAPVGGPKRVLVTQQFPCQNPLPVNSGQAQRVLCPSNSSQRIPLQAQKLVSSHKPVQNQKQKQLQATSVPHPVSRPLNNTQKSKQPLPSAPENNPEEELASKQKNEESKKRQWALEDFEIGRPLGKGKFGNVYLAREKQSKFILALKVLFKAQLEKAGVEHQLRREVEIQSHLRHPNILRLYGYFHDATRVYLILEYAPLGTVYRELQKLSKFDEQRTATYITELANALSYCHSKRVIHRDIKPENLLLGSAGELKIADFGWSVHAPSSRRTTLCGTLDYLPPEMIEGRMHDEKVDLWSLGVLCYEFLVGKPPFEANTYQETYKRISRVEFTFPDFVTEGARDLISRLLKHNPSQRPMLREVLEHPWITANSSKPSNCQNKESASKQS

[19] = target: Dual specificity protein kinase CLK2 (Homo sapiens, UniProt P49760); assay: Selectivity interaction (Ambit KINOMEscan and KiNATiv profiling in Jurkat cells) EUB0000090b CLK2; assay type: cell-based; conditions: at 1 µM
[20] = target: Serine/threonine-protein kinase/endoribonuclease IRE1 (Homo sapiens) (UniProt O75460); assay: Selectivity interaction (Ambit KINOMEscan and KiNATiv profiling in Jurkat cells) EUB0000090b ERN1; assay type: cell-based; conditions: at 1 µM
[21] = target: Serine/threonine-protein kinase 32C (Homo sapiens) (UniProt Q86UX6); assay: Selectivity interaction (Ambit KINOMEscan and KiNATiv profiling in Jurkat cells) EUB0000090b STK32C; assay type: cell-based; conditions: at 1 µM
Sequence of Serine/threonine-protein kinase 32C (Homo sapiens) (Q86UX6 whole entry): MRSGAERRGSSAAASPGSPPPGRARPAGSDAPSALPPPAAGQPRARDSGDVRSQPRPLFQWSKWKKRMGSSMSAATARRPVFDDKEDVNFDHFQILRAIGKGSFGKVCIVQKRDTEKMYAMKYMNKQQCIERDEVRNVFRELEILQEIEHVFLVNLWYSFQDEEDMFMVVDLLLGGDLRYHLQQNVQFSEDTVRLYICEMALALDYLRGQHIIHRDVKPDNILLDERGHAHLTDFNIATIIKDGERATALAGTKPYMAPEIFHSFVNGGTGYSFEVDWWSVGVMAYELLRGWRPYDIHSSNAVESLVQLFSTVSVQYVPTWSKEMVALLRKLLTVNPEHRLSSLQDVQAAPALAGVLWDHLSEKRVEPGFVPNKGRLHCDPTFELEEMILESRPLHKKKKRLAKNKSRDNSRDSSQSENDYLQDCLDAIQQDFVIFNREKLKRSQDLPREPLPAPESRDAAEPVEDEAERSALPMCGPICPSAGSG

Sequence of Tyrosine-protein kinase Fgr (Homo sapiens) (P09769 2-529 limits assumed): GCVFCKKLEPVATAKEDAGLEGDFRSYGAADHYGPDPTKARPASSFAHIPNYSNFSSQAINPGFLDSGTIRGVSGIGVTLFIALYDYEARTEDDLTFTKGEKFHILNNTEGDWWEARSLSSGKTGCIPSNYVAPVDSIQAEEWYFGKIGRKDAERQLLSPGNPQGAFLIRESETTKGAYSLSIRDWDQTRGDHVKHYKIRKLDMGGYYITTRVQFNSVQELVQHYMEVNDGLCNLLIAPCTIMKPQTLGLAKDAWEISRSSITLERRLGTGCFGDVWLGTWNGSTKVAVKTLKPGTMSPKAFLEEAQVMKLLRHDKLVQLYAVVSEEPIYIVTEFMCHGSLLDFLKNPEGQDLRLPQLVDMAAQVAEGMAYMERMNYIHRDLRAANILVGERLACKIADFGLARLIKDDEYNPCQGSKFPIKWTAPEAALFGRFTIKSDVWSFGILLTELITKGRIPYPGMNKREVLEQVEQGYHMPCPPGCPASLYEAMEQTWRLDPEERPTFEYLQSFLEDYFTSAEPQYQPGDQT
Sequence of Wee1-like protein kinase 2 (Homo sapiens) (P0C1S8 whole entry, looked up): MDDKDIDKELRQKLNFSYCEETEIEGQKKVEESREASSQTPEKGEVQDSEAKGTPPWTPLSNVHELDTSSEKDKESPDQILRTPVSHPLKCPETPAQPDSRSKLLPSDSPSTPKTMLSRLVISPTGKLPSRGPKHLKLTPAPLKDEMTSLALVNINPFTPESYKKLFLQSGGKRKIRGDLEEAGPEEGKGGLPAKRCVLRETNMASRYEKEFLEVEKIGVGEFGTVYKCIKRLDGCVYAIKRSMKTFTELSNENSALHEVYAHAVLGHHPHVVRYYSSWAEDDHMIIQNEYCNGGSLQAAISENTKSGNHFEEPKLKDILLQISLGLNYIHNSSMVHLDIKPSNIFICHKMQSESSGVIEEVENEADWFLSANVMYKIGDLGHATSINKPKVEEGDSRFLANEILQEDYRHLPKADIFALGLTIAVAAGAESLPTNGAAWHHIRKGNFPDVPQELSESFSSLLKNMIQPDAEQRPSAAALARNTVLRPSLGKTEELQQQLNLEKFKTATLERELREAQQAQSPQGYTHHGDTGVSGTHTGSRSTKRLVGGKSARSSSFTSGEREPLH
Sequence of Epidermal growth factor receptor (Homo sapiens), P00533 [G719S] (P00533 whole entry G719S): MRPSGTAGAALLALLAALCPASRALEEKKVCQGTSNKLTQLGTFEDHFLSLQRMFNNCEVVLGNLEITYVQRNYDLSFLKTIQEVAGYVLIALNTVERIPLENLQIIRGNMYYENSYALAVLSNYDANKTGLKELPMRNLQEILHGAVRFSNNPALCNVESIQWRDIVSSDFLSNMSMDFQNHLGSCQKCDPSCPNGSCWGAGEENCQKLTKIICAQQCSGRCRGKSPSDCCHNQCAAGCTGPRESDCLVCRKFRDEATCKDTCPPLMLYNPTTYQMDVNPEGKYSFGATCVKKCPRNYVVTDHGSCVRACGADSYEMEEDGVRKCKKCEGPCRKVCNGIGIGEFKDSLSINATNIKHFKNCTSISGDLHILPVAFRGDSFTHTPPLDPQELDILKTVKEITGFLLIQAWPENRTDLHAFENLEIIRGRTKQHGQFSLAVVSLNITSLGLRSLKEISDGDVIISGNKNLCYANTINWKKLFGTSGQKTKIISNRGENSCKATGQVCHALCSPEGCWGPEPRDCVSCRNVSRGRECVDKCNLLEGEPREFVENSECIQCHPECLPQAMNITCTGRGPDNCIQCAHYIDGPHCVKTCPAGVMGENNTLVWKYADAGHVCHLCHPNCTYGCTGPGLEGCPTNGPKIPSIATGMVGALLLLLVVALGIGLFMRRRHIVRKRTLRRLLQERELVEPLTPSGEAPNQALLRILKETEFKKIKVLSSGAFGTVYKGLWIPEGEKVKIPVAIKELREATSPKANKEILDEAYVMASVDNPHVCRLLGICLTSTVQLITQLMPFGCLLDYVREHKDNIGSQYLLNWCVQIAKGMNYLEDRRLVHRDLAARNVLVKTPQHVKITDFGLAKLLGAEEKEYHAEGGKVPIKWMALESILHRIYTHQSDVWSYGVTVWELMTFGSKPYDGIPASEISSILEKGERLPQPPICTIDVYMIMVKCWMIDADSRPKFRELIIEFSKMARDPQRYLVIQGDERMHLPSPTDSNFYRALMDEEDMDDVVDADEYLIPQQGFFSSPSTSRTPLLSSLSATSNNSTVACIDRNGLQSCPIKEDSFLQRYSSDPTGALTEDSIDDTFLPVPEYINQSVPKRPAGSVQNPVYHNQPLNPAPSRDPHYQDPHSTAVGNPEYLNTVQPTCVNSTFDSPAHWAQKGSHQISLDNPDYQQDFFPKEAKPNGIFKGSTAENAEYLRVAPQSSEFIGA
Sequence of Epidermal growth factor receptor (P00533 whole entry): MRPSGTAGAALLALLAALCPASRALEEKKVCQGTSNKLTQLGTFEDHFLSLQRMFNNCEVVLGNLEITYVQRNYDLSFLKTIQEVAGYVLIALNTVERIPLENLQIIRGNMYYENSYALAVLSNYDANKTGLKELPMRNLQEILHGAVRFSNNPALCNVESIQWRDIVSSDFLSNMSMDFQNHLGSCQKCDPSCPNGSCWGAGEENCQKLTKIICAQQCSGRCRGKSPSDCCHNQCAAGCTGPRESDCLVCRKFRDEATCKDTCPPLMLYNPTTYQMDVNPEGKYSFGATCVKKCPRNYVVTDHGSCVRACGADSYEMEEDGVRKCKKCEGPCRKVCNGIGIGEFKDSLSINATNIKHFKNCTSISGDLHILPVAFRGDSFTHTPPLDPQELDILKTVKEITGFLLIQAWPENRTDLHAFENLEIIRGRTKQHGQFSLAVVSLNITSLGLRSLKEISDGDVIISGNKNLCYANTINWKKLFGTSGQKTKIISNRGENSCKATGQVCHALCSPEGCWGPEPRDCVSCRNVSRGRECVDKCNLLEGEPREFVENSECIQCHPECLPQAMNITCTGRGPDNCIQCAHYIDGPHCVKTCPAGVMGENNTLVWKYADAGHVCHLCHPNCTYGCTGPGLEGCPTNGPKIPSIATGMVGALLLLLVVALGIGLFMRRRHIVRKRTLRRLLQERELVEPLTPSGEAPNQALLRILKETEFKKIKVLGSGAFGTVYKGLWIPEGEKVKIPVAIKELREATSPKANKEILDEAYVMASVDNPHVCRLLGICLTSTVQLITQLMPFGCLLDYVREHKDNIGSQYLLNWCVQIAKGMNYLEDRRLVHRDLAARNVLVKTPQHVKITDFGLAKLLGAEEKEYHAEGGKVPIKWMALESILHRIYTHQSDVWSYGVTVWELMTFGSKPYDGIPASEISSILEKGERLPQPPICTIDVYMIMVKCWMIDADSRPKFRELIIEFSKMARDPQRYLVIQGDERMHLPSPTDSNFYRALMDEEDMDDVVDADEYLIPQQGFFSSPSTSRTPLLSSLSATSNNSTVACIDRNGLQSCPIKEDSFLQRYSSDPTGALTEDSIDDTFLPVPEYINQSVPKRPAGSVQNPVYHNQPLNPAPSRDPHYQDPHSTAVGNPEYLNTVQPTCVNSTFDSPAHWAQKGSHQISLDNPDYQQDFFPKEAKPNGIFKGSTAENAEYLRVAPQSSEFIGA
Sequence of Ribosomal protein S6 kinase beta-1 (P23443 whole entry, looked up): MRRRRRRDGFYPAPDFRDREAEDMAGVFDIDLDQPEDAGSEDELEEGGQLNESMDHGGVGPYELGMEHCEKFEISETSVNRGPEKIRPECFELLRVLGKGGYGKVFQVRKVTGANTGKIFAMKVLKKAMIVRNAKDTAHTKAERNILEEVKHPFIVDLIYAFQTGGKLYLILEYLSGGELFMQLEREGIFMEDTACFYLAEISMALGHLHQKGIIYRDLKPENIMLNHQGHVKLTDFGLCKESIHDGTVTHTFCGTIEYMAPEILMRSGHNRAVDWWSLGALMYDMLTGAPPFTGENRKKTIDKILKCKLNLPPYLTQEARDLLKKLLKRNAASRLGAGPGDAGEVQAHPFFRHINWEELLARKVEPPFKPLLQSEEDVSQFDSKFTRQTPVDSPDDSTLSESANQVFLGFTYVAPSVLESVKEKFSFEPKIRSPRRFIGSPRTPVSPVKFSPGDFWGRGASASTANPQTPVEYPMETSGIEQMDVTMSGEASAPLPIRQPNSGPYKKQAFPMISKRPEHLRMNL
Sequence of Dual specificity protein kinase CLK2 (P49760 whole entry, looked up): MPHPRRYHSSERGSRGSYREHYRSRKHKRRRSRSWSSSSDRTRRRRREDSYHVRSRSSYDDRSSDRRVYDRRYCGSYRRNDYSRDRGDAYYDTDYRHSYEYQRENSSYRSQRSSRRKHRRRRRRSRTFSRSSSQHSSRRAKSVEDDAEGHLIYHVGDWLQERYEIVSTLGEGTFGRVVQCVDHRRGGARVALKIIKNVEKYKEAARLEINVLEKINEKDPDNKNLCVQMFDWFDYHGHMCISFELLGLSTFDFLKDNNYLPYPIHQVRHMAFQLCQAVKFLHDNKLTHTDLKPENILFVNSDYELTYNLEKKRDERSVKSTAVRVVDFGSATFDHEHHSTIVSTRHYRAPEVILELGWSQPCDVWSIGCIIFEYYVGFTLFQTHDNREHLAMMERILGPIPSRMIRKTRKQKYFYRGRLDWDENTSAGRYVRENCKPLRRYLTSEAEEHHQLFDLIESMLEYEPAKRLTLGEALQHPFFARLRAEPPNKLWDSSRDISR

**Q.** `COc1cc(N(C)c2ccnc3ccc(C(F)(F)F)cc23)cc(OC)c1OC` was tested. Which % binding [1] did it give?
**A.** The % binding was 92%.

**Q.** What about the % binding [2] of the same compound?
**A.** Its % binding is 84%.

**Q.** What about the % binding [3] of the same compound?
**A.** The % binding was 99%.

**Q.** And the % binding [4]?
**A.** The % binding was 92%.

**Q.** And the % binding [5]?
**A.** Its % binding is 96%.

**Q.** And the % binding [6]?
**A.** The % binding was 100%.

**Q.** What about the % binding [7] of the same compound?
**A.** Its % binding is 97%.

**Q.** What about the % binding [8] of the same compound?
**A.** Its % binding is 86%.

**Q.** And the % binding [9]?
**A.** The % binding was 87%.

**Q.** `COCC(=O)NC/C=C/c1ccc2ncnc(Nc3ccc(Oc4ccc(C)nc4)c(C)c3)c2c1` [CP-724714] was tested. Which % of control [10] did it give?
**A.** The % of control was 65%.

**Q.** For `Nc1cnc(N2CCc3cc(S(=O)(=O)Nc4c(F)cc(Cl)cc4F)cc(N4CCCC4=O)c32)nc1` [TP-020n], which % of control (Aurora kinase B) is on record?
**A.** Its % of control is 98%.

**Q.** With `CN(C)CC#Cc1ccc2[nH]c3c(c2c1)-c1nc(N)ncc1CCC3` as the compound, how does the % of control [11] read?
**A.** Its % of control is 9.6%.

**Q.** How did the % of control [12] turn out when `O[C@H]1CC[C@H](Nc2ncc3nc(Nc4c(F)cc(F)cc4F)n([C@H]4CCOC4)c3n2)CC1` was run?
**A.** Its % of control is 100%.

**Q.** For `CC[C@@H]1[C@H](F)C(=O)N[C@@H]1COc1nccc2cc(C(N)=O)c(OC)cc12` [ZIMLOVISERTIB], which % of inhibition ([13]; at 0.01 µM) is on record?
**A.** Its % of inhibition is -11.8%.

**Q.** What about the % of inhibition ([13]; at 0.04 µM) of the same compound?
**A.** The % of inhibition was -4.6%.

**Q.** What about the % of inhibition ([13]; at 0.2 µM) of the same compound?
**A.** The % of inhibition was -12.7%.

**Q.** What about the % of inhibition ([13]; at 1 µM) of the same compound?
**A.** The % of inhibition was -24.1%.

**Q.** And the % of inhibition ([13]; at 5 µM)?
**A.** The % of inhibition was -17.9%.

**Q.** What about the % of inhibition [14] of the same compound?
**A.** Its % of inhibition is 0.5%.

**Q.** What about the % of inhibition [15] of the same compound?
**A.** Its % of inhibition is -97%.

**Q.** With `CN(C)CCOc1ccc(-c2nc(-c3ccncc3)c(-c3ccc4c(c3)CC/C4=N\O)[nH]2)cc1` as the compound, how does the % of control [16] read?
**A.** The % of control was 90%.

**Q.** For `CCC(=O)N1CCN(c2ccc(-n3c(=O)ccc4cnc5ccc(-c6cnc7ccccc7c6)cc5c43)cc2C(F)(F)F)CC1`, which % of control [17] is on record?
**A.** Its % of control is 58%.

**Q.** And the % of control [18]?
**A.** The % of control was 100%.

**Q.** With `CN(C)C/C=C/C(=O)Nc1ccc(C(=O)N2CCCC(Nc3ncc(Cl)c(-c4c[nH]c5ccccc45)n3)C2)cc1` (stereo unspecified) as the compound, how does the % of control [19] read?
**A.** Its % of control is 55%.

**Q.** What about the % of control [20] of the same compound?
**A.** Its % of control is 92%.

**Q.** And the % of control [21]?
**A.** The % of control was 71%.
